Where two headings read alike, the source gives them in different places.
What was measured:
HDAC10 = target: T1, HDAC10 (Homo sapiens, UniProt Q969S8)
T1 sequence (Q969S8 1-669): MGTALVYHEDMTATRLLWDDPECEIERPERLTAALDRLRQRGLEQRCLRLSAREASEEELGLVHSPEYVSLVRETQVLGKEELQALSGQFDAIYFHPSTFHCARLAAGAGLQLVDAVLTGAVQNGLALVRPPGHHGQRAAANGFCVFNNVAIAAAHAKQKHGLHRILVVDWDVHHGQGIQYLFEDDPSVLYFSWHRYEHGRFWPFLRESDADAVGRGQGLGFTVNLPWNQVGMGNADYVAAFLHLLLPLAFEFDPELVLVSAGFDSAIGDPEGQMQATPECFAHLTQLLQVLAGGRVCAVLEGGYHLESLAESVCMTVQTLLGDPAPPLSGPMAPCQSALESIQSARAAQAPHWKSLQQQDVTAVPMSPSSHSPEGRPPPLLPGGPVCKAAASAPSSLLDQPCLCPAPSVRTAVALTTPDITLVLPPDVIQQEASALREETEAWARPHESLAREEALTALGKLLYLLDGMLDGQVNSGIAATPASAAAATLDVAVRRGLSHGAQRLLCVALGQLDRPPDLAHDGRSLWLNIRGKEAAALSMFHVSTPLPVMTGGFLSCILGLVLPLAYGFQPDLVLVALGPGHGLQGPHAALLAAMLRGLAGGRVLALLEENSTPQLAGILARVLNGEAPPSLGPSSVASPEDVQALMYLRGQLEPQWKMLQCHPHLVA
Method: (§1) Test materials were stored at room temperature and stock solutions were prepared at 20 mg/ml in DMSO. Further dilutions were made in sterile distilled water immediately before being added to the reaction mixture containing a substrate, and the reaction was triggered by the addition of purified HDAC enzymes, Double distilled water was the negative control and trichostatin (1.5 ug/ml) was used as a positive control for validation of each study. The test procedure was as directed in the assay kits. The products of the reactions were measured by fluorometry at ex/em 350/450 nm using multi-well plate fluorometer Cytofluor 4000 (Applied Biosystem, Foster City, CA) or using SpectraMax i3× Multi-Mode Detection Platform from Molecular Devices (Sunnyvale, CA).
(§2) Statistical significance was assessed with a two-tail Student test. Deviations of ≤20% as compared to water control with p values below 0.05 were considered statistically significant.

HDAC7 = target: T2, HDAC7 (Homo sapiens, UniProt Q8WUI4)
T2 sequence (Q8WUI4 1-952): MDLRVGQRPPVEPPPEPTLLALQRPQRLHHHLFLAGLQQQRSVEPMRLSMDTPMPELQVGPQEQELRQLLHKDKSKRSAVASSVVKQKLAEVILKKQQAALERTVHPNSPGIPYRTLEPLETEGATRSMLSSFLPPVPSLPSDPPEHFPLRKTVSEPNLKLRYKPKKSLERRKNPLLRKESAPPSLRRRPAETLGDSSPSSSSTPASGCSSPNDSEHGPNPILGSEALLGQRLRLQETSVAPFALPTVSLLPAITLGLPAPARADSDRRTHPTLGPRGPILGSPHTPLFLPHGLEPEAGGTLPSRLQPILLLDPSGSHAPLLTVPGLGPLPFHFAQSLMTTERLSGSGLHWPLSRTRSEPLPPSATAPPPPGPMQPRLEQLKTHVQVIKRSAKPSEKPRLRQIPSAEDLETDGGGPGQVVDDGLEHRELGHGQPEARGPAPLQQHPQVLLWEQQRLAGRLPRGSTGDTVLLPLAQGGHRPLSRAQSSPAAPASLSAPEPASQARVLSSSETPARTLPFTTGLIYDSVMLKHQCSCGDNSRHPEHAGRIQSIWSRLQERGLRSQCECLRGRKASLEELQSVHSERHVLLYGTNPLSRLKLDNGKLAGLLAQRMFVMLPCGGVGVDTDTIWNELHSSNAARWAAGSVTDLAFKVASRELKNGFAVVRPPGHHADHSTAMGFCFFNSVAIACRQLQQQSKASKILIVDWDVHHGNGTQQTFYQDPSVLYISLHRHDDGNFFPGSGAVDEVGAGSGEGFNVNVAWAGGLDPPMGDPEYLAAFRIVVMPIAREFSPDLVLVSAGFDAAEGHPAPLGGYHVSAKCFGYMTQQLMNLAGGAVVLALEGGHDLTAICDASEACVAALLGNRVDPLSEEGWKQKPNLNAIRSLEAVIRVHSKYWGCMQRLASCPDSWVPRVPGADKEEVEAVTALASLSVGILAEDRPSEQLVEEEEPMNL
Method: as §1, §2

MAGL = target: T3, MAGL (Homo sapiens, UniProt Q99685); test: MAGL inhibitory assay; type: biochemical
T3 construct: purchased Cayman 10007812
T3 sequence (Q99685 1-303): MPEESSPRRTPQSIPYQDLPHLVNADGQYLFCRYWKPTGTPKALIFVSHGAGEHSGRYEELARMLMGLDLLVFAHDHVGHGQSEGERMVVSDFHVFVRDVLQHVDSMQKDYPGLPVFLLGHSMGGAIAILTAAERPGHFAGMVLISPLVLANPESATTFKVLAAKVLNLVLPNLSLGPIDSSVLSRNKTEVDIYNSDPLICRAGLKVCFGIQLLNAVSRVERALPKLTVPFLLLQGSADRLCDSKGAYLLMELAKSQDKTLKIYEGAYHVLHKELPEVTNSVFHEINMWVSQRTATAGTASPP
Method: Each study was performed in duplicate and the results averaged.
The final concentration in each well was 10 μl of sample, 5.6 μM MAGL (Cayman Catalog #10007812) and 23.6 μM 2-Arachidonoyl Glycerol (Cayman catalog #62160).

HDAC 3 = HDAC 3 (Homo sapiens, UniProt O15379)
Method: as §1, §2

HDAC 8 = target: T4, HDAC 8 (Homo sapiens, UniProt Q9BY41)
T4 sequence (Q9BY41 1-377): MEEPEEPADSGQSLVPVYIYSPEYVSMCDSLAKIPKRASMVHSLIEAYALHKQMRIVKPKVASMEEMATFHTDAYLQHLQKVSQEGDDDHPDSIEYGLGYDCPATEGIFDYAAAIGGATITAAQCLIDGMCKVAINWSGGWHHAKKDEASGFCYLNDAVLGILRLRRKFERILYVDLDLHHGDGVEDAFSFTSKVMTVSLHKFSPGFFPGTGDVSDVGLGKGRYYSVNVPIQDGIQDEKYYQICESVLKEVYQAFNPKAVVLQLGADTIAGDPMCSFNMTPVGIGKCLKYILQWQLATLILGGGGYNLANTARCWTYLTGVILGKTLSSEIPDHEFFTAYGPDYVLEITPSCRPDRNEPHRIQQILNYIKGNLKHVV
Method: as §1, §2

HDAC 9 = HDAC 9 (Homo sapiens, UniProt Q9UKV0)
Method: as §1, §2

HDAC 4 = HDAC 4 (Homo sapiens, UniProt P56524); test: HDAC 4 fluorogenic assay kit
Chain of HDAC 4 (P56524 whole entry): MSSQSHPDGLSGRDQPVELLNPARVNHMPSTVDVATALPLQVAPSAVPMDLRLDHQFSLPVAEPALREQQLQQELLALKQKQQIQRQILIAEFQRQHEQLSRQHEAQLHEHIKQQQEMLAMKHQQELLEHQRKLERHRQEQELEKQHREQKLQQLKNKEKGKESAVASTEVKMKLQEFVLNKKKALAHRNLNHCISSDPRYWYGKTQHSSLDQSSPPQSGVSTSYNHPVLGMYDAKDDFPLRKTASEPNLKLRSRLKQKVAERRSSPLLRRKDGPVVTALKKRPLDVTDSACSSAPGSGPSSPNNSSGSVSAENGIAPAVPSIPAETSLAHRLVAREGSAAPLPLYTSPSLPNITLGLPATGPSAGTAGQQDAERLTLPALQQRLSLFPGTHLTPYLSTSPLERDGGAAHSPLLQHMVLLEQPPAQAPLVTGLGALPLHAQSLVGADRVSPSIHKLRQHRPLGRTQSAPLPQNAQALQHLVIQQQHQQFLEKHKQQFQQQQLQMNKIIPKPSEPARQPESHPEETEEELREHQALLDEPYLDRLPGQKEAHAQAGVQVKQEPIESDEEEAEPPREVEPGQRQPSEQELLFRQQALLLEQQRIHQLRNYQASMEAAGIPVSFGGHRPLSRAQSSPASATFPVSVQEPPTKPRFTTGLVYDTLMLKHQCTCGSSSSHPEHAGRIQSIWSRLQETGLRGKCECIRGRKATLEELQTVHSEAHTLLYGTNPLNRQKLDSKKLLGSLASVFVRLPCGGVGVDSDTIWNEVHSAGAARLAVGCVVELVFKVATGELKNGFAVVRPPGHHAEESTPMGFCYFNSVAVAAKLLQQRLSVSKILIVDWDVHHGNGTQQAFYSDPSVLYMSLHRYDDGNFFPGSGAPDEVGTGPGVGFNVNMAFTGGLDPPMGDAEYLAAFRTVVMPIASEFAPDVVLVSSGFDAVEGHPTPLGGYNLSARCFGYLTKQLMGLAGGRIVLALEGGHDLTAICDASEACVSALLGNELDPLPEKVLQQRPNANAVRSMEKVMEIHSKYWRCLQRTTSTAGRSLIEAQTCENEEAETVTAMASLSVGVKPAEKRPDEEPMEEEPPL
Method: as §1, §2

Chain of HDAC 3 (O15379 whole entry): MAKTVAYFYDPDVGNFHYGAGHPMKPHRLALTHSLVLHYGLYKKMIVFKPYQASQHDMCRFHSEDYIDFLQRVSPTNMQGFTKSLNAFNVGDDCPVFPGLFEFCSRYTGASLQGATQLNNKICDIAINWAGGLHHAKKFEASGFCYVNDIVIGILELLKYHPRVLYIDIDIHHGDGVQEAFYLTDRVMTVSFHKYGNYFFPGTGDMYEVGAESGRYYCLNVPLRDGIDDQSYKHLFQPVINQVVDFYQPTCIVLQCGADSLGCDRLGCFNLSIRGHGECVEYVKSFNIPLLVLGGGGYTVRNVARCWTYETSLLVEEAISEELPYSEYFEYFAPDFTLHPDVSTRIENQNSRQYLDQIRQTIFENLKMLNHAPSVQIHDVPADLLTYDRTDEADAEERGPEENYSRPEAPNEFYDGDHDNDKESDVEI
Chain of HDAC 3 (Q9Y618 395-489 partner limits assumed): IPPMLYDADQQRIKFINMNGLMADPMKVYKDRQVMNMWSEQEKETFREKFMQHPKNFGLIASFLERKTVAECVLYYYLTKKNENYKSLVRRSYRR
Chain of HDAC 9 (Q9UKV0 whole entry): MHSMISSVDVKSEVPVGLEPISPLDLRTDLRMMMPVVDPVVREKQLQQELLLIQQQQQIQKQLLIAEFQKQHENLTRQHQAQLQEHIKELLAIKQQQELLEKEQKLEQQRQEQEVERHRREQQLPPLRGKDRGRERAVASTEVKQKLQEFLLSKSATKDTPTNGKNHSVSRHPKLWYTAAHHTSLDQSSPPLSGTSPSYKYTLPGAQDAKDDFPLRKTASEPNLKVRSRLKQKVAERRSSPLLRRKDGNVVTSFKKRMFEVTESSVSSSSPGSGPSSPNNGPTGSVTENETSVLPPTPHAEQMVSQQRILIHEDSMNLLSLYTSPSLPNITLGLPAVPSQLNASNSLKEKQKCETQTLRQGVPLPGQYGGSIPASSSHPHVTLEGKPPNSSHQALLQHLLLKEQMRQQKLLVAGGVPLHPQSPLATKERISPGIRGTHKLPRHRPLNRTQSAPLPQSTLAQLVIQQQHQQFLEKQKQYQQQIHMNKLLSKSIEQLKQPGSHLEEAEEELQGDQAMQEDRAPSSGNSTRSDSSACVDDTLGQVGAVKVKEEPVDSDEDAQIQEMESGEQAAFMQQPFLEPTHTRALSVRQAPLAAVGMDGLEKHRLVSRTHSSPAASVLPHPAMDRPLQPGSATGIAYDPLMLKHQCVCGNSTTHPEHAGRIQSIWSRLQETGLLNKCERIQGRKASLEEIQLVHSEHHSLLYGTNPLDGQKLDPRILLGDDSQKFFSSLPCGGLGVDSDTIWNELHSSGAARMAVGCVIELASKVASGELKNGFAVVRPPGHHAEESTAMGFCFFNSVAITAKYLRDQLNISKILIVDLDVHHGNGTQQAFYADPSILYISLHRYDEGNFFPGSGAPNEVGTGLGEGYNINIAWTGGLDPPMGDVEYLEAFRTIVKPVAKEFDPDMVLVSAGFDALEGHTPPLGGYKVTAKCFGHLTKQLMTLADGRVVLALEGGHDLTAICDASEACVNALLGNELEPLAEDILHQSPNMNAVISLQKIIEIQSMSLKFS

| Compound | HDAC 10 activity, % of water-treated controls (HDAC10; 25 ug/ml) | HDAC 10 activity, % of water-treated controls (HDAC10; 50 ug/ml) | HDAC 10 activity, % of water-treated controls (HDAC10; 100 ug/ml) | HDAC 10 activity, % of water-treated controls (HDAC10; 200 ug/ml) | HDAC 7 activity, % of water-treated controls (HDAC7; 25 ug/ml) | HDAC 7 activity, % of water-treated controls (HDAC7; 50 ug/ml) | HDAC 7 activity, % of water-treated controls (HDAC7; 100 ug/ml) | HDAC 7 activity, % of water-treated controls (HDAC7; 200 ug/ml) | MAGL IC50 (MAGL) | HDAC 3 activity, % of water-treated controls (HDAC 3; 50 ug/ml) | HDAC 3 activity, % of water-treated controls (HDAC 3; 200 ug/ml) | HDAC 8 activity, % of water-treated controls (HDAC 8; 5 ug/ml) | HDAC 8 activity, % of water-treated controls (HDAC 8; 25 ug/ml) | HDAC 8 activity, % of water-treated controls (HDAC 8; 50 ug/ml) | HDAC 8 activity, % of water-treated controls (HDAC 8; 100 ug/ml) | HDAC 8 activity, % of water-treated controls (HDAC 8; 200 ug/ml) | HDAC 9 activity, % of water-treated controls (HDAC 9; 5 ug/ml) | HDAC 9 activity, % of water-treated controls (HDAC 9; 50 ug/ml) | HDAC 9 activity, % of water-treated controls (HDAC 9; 100 ug/ml) | HDAC 9 activity, % of water-treated controls (HDAC 9; 200 ug/ml) | further results |
| --- | --- | --- | --- | --- | --- | --- | --- | --- | --- | --- | --- | --- | --- | --- | --- | --- | --- | --- | --- | --- | --- |
| CCCC(=O)NCCCCC(NC(=O)CCC)C(=O)[O-].CCCC(=O)NCCCCC(NC(=O)CCC)C(=O)[O-].[Ca+2] (stereo not drawn) [Ca di-(di-n-butyryl lysinate), calcium di-(di-n-butyryl lysinate)] | 105% | 103% | 104% | 90% | 101% | 99% | 99% | 97% | 37.6 µg/mL | 120% | 119% | 91% | 148% | 174% | 155% | 111% | 212% | 242% | 289% | 258% | HDAC 3 activity, % of water-treated controls (HDAC 3; 25 ug/ml): 116%; HDAC 3 activity, % of water-treated controls (HDAC 3; 100 ug/ml): 121%; HDAC 9 activity, % of water-treated controls (HDAC 9; 25 ug/ml): 178% |
| CCCC(=O)[O-].[Na+] [Sodium butyrate, reference compound] | – | 100% | 103% | 93% | – | 96% | 94% | 87% | – | 98% | 60% | – | – | 25% | 20% | 20% | – | 55% | 53% | 57% | HDAC 10 activity, % of water-treated controls (HDAC10; 400 ug/ml): 61%; HDAC 7 activity, % of water-treated controls (HDAC7; 400 ug/ml): 91%; IC50 (MAGL): 5.5 mM; HDAC 4 activity, % of water-treated controls (HDAC 4; 25 ug/ml): 93%; HDAC 4 activity, % of water-treated controls (HDAC 4; 50 ug/ml): 96%; HDAC 4 activity, % of water-treated controls (HDAC 4; 100 ug/ml): 96%; HDAC 3 activity, % of water-treated controls (HDAC 3; 100 ug/ml): 82%; HDAC 3 activity, % of water-treated controls (HDAC 3; 400 ug/ml): 49%; HDAC 8 activity, % of water-treated controls (HDAC 8; 400 ug/ml): 14%; HDAC 9 activity, % of water-treated controls (HDAC 9; 400 ug/ml): 58% |
| CCCC(=O)NCCCC[C@H](NC(=O)CCC)C(=O)[O-].CCCC(=O)NCCCC[C@H](NC(=O)CCC)C(=O)[O-].[Zn+2] [Zn di-(di-n-butyryl lysinate), Zinc di-(di-n-butyryl lysinate)] | 15% | 13% | 9% | 7% | 28% | 15% | 9% | 9% | 88.8 µg/mL | 5% | 4% | 15% | 15% | 15% | 13% | 17% | 39% | 25% | 19% | 20% | HDAC 10 activity, % of water-treated controls (HDAC10; 5 ug/ml): 21%; HDAC 7 activity, % of water-treated controls (HDAC7; 5 ug/ml): 56%; HDAC 4 activity, % of water-treated controls (HDAC 4; 25 ug/ml): 120%; HDAC 4 activity, % of water-treated controls (HDAC 4; 50 ug/ml): 60%; HDAC 4 activity, % of water-treated controls (HDAC 4; 100 ug/ml): 39%; HDAC 3 activity, % of water-treated controls (HDAC 3; 25 ug/ml): 14%; HDAC 9 activity, % of water-treated controls (HDAC 9; 25 ug/ml): 29% |
| CCCC(=O)N[C@@H](CC(C)C)C(=O)[O-].CCCC(=O)N[C@@H](CC(C)C)C(=O)[O-].[Zn+2] [Zn di-(n-butyryl leucinate), Zinc di-(n-butyryl leucinate)] | 13% | 10% | 8% | 6% | 18% | 11% | 9% | 9% | 88.3 µg/mL | – | – | 7% | 16% | 16% | 16% | 14% | 15% | 44% | 30% | 22% | HDAC 10 activity, % of water-treated controls (HDAC10; 5 ug/ml): 21%; HDAC 7 activity, % of water-treated controls (HDAC7; 5 ug/ml): 41%; HDAC 9 activity, % of water-treated controls (HDAC 9; 25 ug/ml): 49% |
| Zinc Di-lysinate [Zn dilysinate] | 19% | 12% | 9% | 6% | 30% | 18% | 10% | 10% | 207.0 µg/mL | 8% | 5% | 13% | 13% | 14% | 13% | 12% | 21% | 15% | 15% | 16% | HDAC 4 activity, % of water-treated controls (HDAC 4; 25 ug/ml): 100%; HDAC 4 activity, % of water-treated controls (HDAC 4; 50 ug/ml): 92%; HDAC 4 activity, % of water-treated controls (HDAC 4; 100 ug/ml): 63%; HDAC 3 activity, % of water-treated controls (HDAC 3; 10 ug/ml): 18%; HDAC 9 activity, % of water-treated controls (HDAC 9; 25 ug/ml): 18% |

— patent US20260041620A1, “NOVEL AMINO ACID BASED SALTS, COMPOSITIONS AND METHODS FOR TREATING SKIN AND IMPROVING SKIN REJUVENATION AND LONGEVITY” (Sytheon Ltd, priority 2023, published 2026)
